Source: ChEMBL document CHEMBL1135625, “Synthesis and antiinflammatory evaluation of 9-anilinoacridine and 9-phenoxyacridine derivatives” (J Med Chem, 2002)

Assays:
[1] = species: Rattus norvegicus; assay: % inhibition against mast cell degranulation by measuring the content of histamine in the supernatant; assay type: functional; design: concentration or dose not given beside the values
[2] = test system: RAW264.7; assay: 50% inhibition against TNF-alpha release in RAW 264.7 cells in the supernatant; assay type: functional, cell-based; settings: Mus musculus
[3] = species: Rattus norvegicus; assay: Inhibitory activity against mast cell degranulation by measuring the content of histamine in the supernatant; assay type: functional
[4] = species: Rattus norvegicus; assay: Inhibitory activity against neutrophil degranulation by measuring the content of lysozyme in the supernatant; assay type: functional
[5] = species: Rattus norvegicus; assay: % inhibition against neutrophil degranulation by measuring the content of beta-glucuronidase in the supernatant; assay type: functional; design: concentration or dose not given beside the values
[6] = species: Rattus norvegicus; assay: Inhibitory activity against neutrophil degranulation by measuring the content of beta-glucuronidase in the supernatant; assay type: functional
[7] = test system: RAW264.7; assay: % inhibition against TNF-alpha release in RAW 264.7 cells in the supernatant; assay type: functional, Mus musculus; design: concentration or dose not given beside the values
[8] = species: Rattus norvegicus; assay: % inhibition against mast cell degranulation by measuring the content of beta-glucuronidase in the supernatant; assay type: functional; design: concentration or dose not given beside the values
[9] = species: Rattus norvegicus; assay: Inhibitory activity against mast cell degranulation by measuring the content of beta-glucuronidase in the supernatant; assay type: functional
[10] = test system: N9; assay: 50% inhibition against TNF-alpha release in N9 cells in the supernatant; assay type: functional, cell-based; settings: Mus musculus
[11] = test system: N9; assay: (§1) Inhibitory activity against TNF-alpha release in N9 cells in the supernatant; assay type: functional, cell-based, Mus musculus
[12] = species: Rattus norvegicus; assay: % inhibition against neutrophil degranulation by measuring the content of lysozyme in the supernatant; assay type: functional; design: concentration or dose not given beside the values
[13] = test system: RAW264.7; assay: (§2) Inhibitory activity against TNF-alpha release in RAW 264.7 cells in the supernatant; assay type: functional, cell-based; settings: Mus musculus
[14] = test system: N9; assay: % inhibition against TNF-alpha release in N9 cells in the supernatant; assay type: functional, Mus musculus; design: concentration or dose not given beside the values
[15] = species: Rattus norvegicus; assay: % inhibition against mast cell degranulation by measuring the content of beta-glucuronidase in the supernatant; settings: concentration not given here
[16] = species: Rattus norvegicus; assay: 50% inhibition against mast cell degranulation by measuring the content of beta-glucuronidase in the supernatant; assay type: functional
[17] = test system: RAW264.7; assay: as §2; assay type: functional, Mus musculus
[18] = test system: N9; assay: as §1; assay type: functional, Mus musculus

Row | Structure (SMILES) | Inhibition [1] | IC50 [2] | IC50 [3] | IC50 [4] | Inhibition [5] | IC50 [6] | Inhibition [7] | Inhibition [8] | IC50 [9] | IC50 [10] | IC50 [11] | Inhibition [12] | IC50 [13] | Inhibition [14] | inhibition [15] | IC50 [16] | Inhibition [17] | Inhibition [18]
1 | CC(=O)c1ccc(Nc2c3ccccc3nc3ccccc23)cc1 | 15.7% | > 10 µM | > 30 µM | 23.7 µM | 26.7% | > 30 µM | 47.2% | 34.7% | > 30 µM | 0.8 µM | – | – | – | – | – | – | – | –
2 | CCN(CC)CCCC(C)Nc1c2ccc(Cl)cc2nc2ccc(OC)cc12 (stereo not drawn) [QUINACRINE] | – | – | 31.2 µM | – | – | – | – | – | 28.8 µM | – | – | – | – | – | – | – | – | –
3 | COc1ccc2nc3cc(Cl)ccc3c(Oc3ccc(C(C)=O)cc3)c2c1 | 7.2% | – | > 30 µM | > 30 µM | 10.4% | > 30 µM | 33.1% | 26.4% | > 30 µM | – | > 10 µM | -12.8% | > 30 µM | 45.9% | – | – | – | –
4 | CC(=O)/C=C/c1ccc(Oc2c3ccccc3nc3ccccc23)cc1 | -10.5% | – | > 30 µM | > 30 µM | 32.4% | > 30 µM | -15.7% | 7.7% | > 30 µM | – | 8.7 µM | 10.3% | > 30 µM | – | – | – | – | –
5 | CN1CCN(CCCN2c3ccccc3Sc3ccc(C(F)(F)F)cc32)CC1 [TRIFLUOPERAZINE] | – | – | 10.1 µM | – | – | – | – | – | 12.8 µM | – | – | – | – | – | – | – | – | –
6 | COc1ccc2nc3ccccc3c(Oc3ccc(C(C)=O)cc3)c2c1 | 9.4% | – | > 30 µM | 18.3 µM | – | 12.9 µM | – | – | > 30 µM | – | > 3 µM | – | 19.3 µM | 36.1% | 25% | – | – | –
7 | CC(=O)c1ccc(Oc2c3c(nc4ccccc24)CCCC3)cc1 | 5.7% | – | > 30 µM | > 30 µM | 42.1% | > 30 µM | 48.9% | 13.3% | > 30 µM | – | > 3 µM | 32.4% | > 30 µM | -3.5% | – | – | – | –
8 | C[C@@H]1C[C@H]2[C@@H]3CCC4=CC(=O)C=C[C@]4(C)[C@@]3(F)[C@@H](O)C[C@]2(C)[C@@]1(O)C(=O)CO [DEXAMETHASONE] | – | – | – | – | – | – | – | – | – | – | 0.074 µM | – | 0.42 µM | – | – | – | – | –
9 | O=Cc1ccc(Oc2c3ccccc3nc3ccccc23)cc1 | – | – | 21.5 µM | > 30 µM | 49.9% | > 30 µM | – | – | – | > 3 µM | – | 44.8% | > 30 µM | – | – | 20.7 µM | 17.2% | 19.9%
10 | COc1cccc2c(Oc3ccc(C(C)=O)cc3)c3ccccc3nc12 | – | – | 16 µM | 21.3 µM | 35.2% | > 30 µM | 34.3% | – | – | – | > 10 µM | – | > 30 µM | 19.7% | – | 19.5 µM | – | –
11 | C/C(=N\O)c1ccc(Nc2c3ccccc3nc3ccccc23)cc1 | 23.3% | > 10 µM | > 30 µM | 8.2 µM | – | 4.4 µM | 44.9% | 29.5% | > 30 µM | > 3 µM | – | – | – | 40.1% | – | – | – | –
12 | CO/N=C(\C)c1ccc(Nc2c3ccccc3nc3ccccc23)cc1 | – | > 30 µM | 20.8 µM | > 30 µM | 46.9% | > 30 µM | 7.2% | – | – | > 3 µM | – | 15.4% | – | 39.3% | – | 21 µM | – | –
13 | CC(=O)c1ccc(Oc2c3ccccc3nc3ccc(Cl)cc23)cc1 | 14.4% | – | > 30 µM | > 30 µM | 14.8% | > 30 µM | 4.6% | 29.4% | > 30 µM | – | > 30 µM | -16.4% | > 30 µM | 12.3% | – | – | – | –
14 | CC(=O)COc1ccc(Nc2c3ccccc3nc3ccccc23)cc1 | 19.2% | 8.2 µM | > 30 µM | > 30 µM | 35.8% | > 30 µM | – | 1.3% | > 30 µM | > 1 µM | – | 21.6% | – | 6.6% | – | – | – | –
15 | CC(=O)c1ccc(Oc2c3ccccc3nc3ccccc23)cc1 | 43.8% | – | > 30 µM | 18.7 µM | 42% | > 30 µM | 45.6% | 44.6% | > 30 µM | – | > 3 µM | – | > 30 µM | 23.9% | – | – | – | –
